{"source": "patent US20190343908A1", "about": "“Therapeutic Combination for the Treatment of Cancer” (Nerium Biotechnology Inc., priority 2011, published 2019)", "key": {"[1]": {"tested_on": "PANC-1 pancreatic cancer cell line", "experiment": "Methyl-Tetrazolium viability assay, PANC-1", "type": "cell-based, human", "design": "key to Average MTT: absorbance at 570 nm (optical density)", "details": "for ABSORBANCE: 0.1 μg/mL cisplatin; for MTT 24 h / MTT 48 h / MTT 72 h: Run 1 average", "text": "The Methyl-Tetrazolium dye assay measures the activity of enzymes in mitochondria. The dye precursor is taken up by cells, where it undergoes reduction to the purple formazan. It measures only the mitochondrial activity and, thus, it is not always a reliable indication of whether the cells themselves are alive or dead, since even a recently dead cell has […] enzyme activity in mitochondria. Intracellular glucose concentration, pH, and time before assay all affect the measurements.\n(§1) The Methyl Tetrazolium, Sulforhodamine B, and Crystal Violet assays were used to assess cell viabilities. The incubation times were 24 hours, 48 hours, and 72 hours. The Nerium oleander extract Anvirzel™ (a hot water extract of oleander obtained from Salud Integral, Honduras) was tested in concentrations ranging from 0.01 ng/mL to 10 ng/mL.\n(§2) Cells were detached by trypsinization (Trypsin-0.25% EDTA, Invitrogen, 25200-072) during the logarithmic phase of culture growth and plated in 96-well plates (18.000 cells/well) (Corning, Costar 359) in a final volume of 200 μl of medium per well. […] The absorbance was measured after 24 hours, 48 hours, and 72 hours of incubation.\nFor the Methyl-Tetrazolium assay, the dye (Sigma, M2128; 5 mg/mL, diluted in phosphate-buffered saline) was added to each well and plates were incubated for 3 hours at 37° C. After the end of the incubation period, the medium was discarded and the cells were rinsed with phosphate-buffered saline. Finally, the formazan crystals were dissolved in dimethylsulphoxide (Sigma, D4540).\n(§3) The optical density of each plate was measured on a μQuant spectrophotometer and the data were analyzed with Gen5 software (μQuant Biomolecular Spectrophotometer MQX200 and Gen5™ Microplate Data Collection & Analysis software, BioTek® Instruments. Inc, April 2008). Absorbance was measured at 570 nm for all assays and a second wavelength was measured in order to subtract noise. For the Methyl-Tetrazolium assay this second wavelength was 630 nm and for the Sulforhodamine B and Crystal Violet assays it was 690 nm."}, "[2]": {"tested_on": "CALU-1 (non-small cell lung carcinoma)", "experiment": "Crystal Violet viability assay, CALU-1", "type": "cell-based, human", "text": "The Sulforhodamine B and Crystal Violet assays provide information about protein and were used to complement the Methyl-Tetrazolium dye assay. […] It is used for the quantification of cellular proteins of cultured cells. The assay using Crystal Violet, a dye that binds electrostatically to proteins and stains DNA, provides a reliable, simple assay for measuring viability of cells.\nas §1, §2\nFor the Crystal Violet assay, the medium was removed from the 96-well plates, the plates rinsed with PBS (Sigma, P3813) and then the cells were […] by the addition of 10% formalin (MERCK, 1.04003.2500) for 20 minutes at RT. Formalin was removed and 0.25% aqueous crystal violet (Sigma, HT901), dissolved in water, was added for 10 minutes at RT. Unbound Crystal Violet was rinsed by washing with water and finally 33% acetic acid was added to dissolve the dye.\nas §3"}}}
{"molecule": "N.N.[Cl][Pt][Cl]", "note": "[cisplatin]", "values": [{"measurement": "ABSORBANCE", "setting": "[1]; PANC-1, 48 h", "value": 0.286}, {"measurement": "ABSORBANCE", "setting": "[1]; PANC-1, 72 h", "value": 0.344}, {"measurement": "Average MTT", "setting": "[1]; PANC-1, Run 2, 24 h, 0.1 μg/ml CDDP", "value": 0.096}, {"measurement": "Average MTT", "setting": "[1]; PANC-1, Run 2, 24 h, 1 μg/ml CDDP", "value": 0.029}, {"measurement": "Average MTT", "setting": "[1]; PANC-1, Run 2, 24 h, 10 μg/ml CDDP", "value": 0.058}, {"measurement": "Average MTT", "setting": "[1]; PANC-1, Run 2, 24 h, 100 μg/ml CDDP", "value": 0.029}, {"measurement": "Average MTT", "setting": "[1]; PANC-1, Run 2, 48 h, 0.1 μg/ml CDDP", "value": 0.178}, {"measurement": "Average MTT", "setting": "[1]; PANC-1, Run 2, 48 h, 1 μg/ml CDDP", "value": 0.037}, {"measurement": "Average MTT", "setting": "[1]; PANC-1, Run 2, 48 h, 10 μg/ml CDDP", "value": 0.041}, {"measurement": "Average MTT", "setting": "[1]; PANC-1, Run 2, 48 h, 100 μg/ml CDDP", "value": 0.034}, {"measurement": "Average MTT", "setting": "[1]; PANC-1, Run 2, 72 h, 0.1 μg/ml CDDP", "value": 0.241}, {"measurement": "Average MTT", "setting": "[1]; PANC-1, Run 2, 72 h, 1 μg/ml CDDP", "value": 0.033}, {"measurement": "Average MTT", "setting": "[1]; PANC-1, Run 2, 72 h, 10 μg/ml CDDP", "value": 0.04}, {"measurement": "Average MTT", "setting": "[1]; PANC-1, Run 2, 72 h, 100 μg/ml CDDP", "value": 0.033}, {"measurement": "Average MTT", "setting": "[1]; PANC-1, Run 3, 24 h, 0.1 μg/ml CDDP", "value": 0.076}, {"measurement": "Average MTT", "setting": "[1]; PANC-1, Run 3, 24 h, 1 μg/ml CDDP", "value": 0.02}, {"measurement": "Average MTT", "setting": "[1]; PANC-1, Run 3, 24 h, 10 μg/ml CDDP", "value": 0.04}, {"measurement": "Average MTT", "setting": "[1]; PANC-1, Run 3, 24 h, 100 μg/ml CDDP", "value": 0.022}, {"measurement": "Average MTT", "setting": "[1]; PANC-1, Run 3, 48 h, 0.1 μg/ml CDDP", "value": 0.286}, {"measurement": "Average MTT", "setting": "[1]; PANC-1, Run 3, 48 h, 1 μg/ml CDDP", "value": 0.043}, {"measurement": "Average MTT", "setting": "[1]; PANC-1, Run 3, 48 h, 10 μg/ml CDDP", "value": 0.045}, {"measurement": "Average MTT", "setting": "[1]; PANC-1, Run 3, 48 h, 100 μg/ml CDDP", "value": 0.044}, {"measurement": "Average MTT", "setting": "[1]; PANC-1, Run 3, 72 h, 0.1 μg/ml CDDP", "value": 0.344}, {"measurement": "Average MTT", "setting": "[1]; PANC-1, Run 3, 72 h, 1 μg/ml CDDP", "value": 0.049}, {"measurement": "Average MTT", "setting": "[1]; PANC-1, Run 3, 72 h, 10 μg/ml CDDP", "value": 0.05}, {"measurement": "Average MTT", "setting": "[1]; PANC-1, Run 3, 72 h, 100 μg/ml CDDP", "value": 0.049}, {"measurement": "MTT 24 h", "setting": "[1]; 0.1 μg/ml CDDP", "value": 0.169}, {"measurement": "MTT 48 h", "setting": "[1]; 0.1 μg/ml CDDP", "value": 0.24}, {"measurement": "MTT 24 h", "setting": "[1]; 1 μg/ml CDDP", "value": 0.035}, {"measurement": "MTT 48 h", "setting": "[1]; 1 μg/ml CDDP", "value": 0.035}, {"measurement": "MTT 72 h", "setting": "[1]; 1 μg/ml CDDP", "value": 0.03}, {"measurement": "MTT 24 h", "setting": "[1]; 10 μg/ml CDDP", "value": 0.048}, {"measurement": "MTT 48 h", "setting": "[1]; 10 μg/ml CDDP", "value": 0.038}, {"measurement": "MTT 72 h", "setting": "[1]; 10 μg/ml CDDP", "value": 0.035}, {"measurement": "MTT 24 h", "setting": "[1]; 100 μg/ml CDDP", "value": 0.034}, {"measurement": "MTT 48 h", "setting": "[1]; 100 μg/ml CDDP", "value": 0.039}, {"measurement": "MTT 72 h", "setting": "[1]; 100 μg/ml CDDP", "value": 0.032}, {"measurement": "Average CVE 24 h", "setting": "[2]; CALU-1 Run 1, 0.1 μg/ml CDDP", "value": 0.554}, {"measurement": "Average CVE 48 h", "setting": "[2]; CALU-1 Run 1, 0.1 μg/ml CDDP", "value": 0.652}, {"measurement": "Average CVE 72 h", "setting": "[2]; CALU-1 Run 1, 0.1 μg/ml CDDP", "value": 0.441}, {"measurement": "Average CVE 24 h", "setting": "[2]; CALU-1 Run 1, 1 μg/ml CDDP", "value": 0.231}, {"measurement": "Average CVE 48 h", "setting": "[2]; CALU-1 Run 1, 1 μg/ml CDDP", "value": 0.661}, {"measurement": "Average CVE 72 h", "setting": "[2]; CALU-1 Run 1, 1 μg/ml CDDP", "value": 0.135}, {"measurement": "Average CVE 24 h", "setting": "[2]; CALU-1 Run 1, 10 μg/ml CDDP", "value": 0.421}, {"measurement": "Average CVE 48 h", "setting": "[2]; CALU-1 Run 1, 10 μg/ml CDDP", "value": 0.503}, {"measurement": "Average CVE 72 h", "setting": "[2]; CALU-1 Run 1, 10 μg/ml CDDP", "value": 0.157}, {"measurement": "Average CVE 24 h", "setting": "[2]; CALU-1 Run 1, 100 μg/ml CDDP", "value": 0.306}, {"measurement": "Average CVE 48 h", "setting": "[2]; CALU-1 Run 1, 100 μg/ml CDDP", "value": 0.409}, {"measurement": "Average CVE 72 h", "setting": "[2]; CALU-1 Run 1, 100 μg/ml CDDP", "value": 0.125}, {"measurement": "Average CVE 24 h", "setting": "[2]; CALU-1 Run 2, 0.1 μg/ml CDDP", "value": 0.484}, {"measurement": "Average CVE 48 h", "setting": "[2]; CALU-1 Run 2, 0.1 μg/ml CDDP", "value": 0.886}, {"measurement": "Average CVE 72 h", "setting": "[2]; CALU-1 Run 2, 0.1 μg/ml CDDP", "value": 0.786}, {"measurement": "Average CVE 24 h", "setting": "[2]; CALU-1 Run 2, 1 μg/ml CDDP", "value": 0.576}, {"measurement": "Average CVE 48 h", "setting": "[2]; CALU-1 Run 2, 1 μg/ml CDDP", "value": 0.563}, {"measurement": "Average CVE 72 h", "setting": "[2]; CALU-1 Run 2, 1 μg/ml CDDP", "value": 0.214}, {"measurement": "Average CVE 24 h", "setting": "[2]; CALU-1 Run 2, 10 μg/ml CDDP", "value": 0.64}, {"measurement": "Average CVE 48 h", "setting": "[2]; CALU-1 Run 2, 10 μg/ml CDDP", "value": 0.46}, {"measurement": "Average CVE 72 h", "setting": "[2]; CALU-1 Run 2, 10 μg/ml CDDP", "value": 0.254}, {"measurement": "Average CVE 24 h", "setting": "[2]; CALU-1 Run 2, 100 μg/ml CDDP", "value": 0.416}, {"measurement": "Average CVE 48 h", "setting": "[2]; CALU-1 Run 2, 100 μg/ml CDDP", "value": 0.352}, {"measurement": "Average CVE 72 h", "setting": "[2]; CALU-1 Run 2, 100 μg/ml CDDP", "value": 0.344}, {"measurement": "Average CVE 24 h", "setting": "[2]; CALU-1 Run 3, 0.1 μg/ml CDDP, 24 h", "value": 0.492}, {"measurement": "Average CVE 48 h", "setting": "[2]; CALU-1 Run 3, 0.1 μg/ml CDDP, 48 h", "value": 0.389}, {"measurement": "Average CVE 72 h", "setting": "[2]; CALU-1 Run 3, 0.1 μg/ml CDDP, 72 h", "value": 0.505}, {"measurement": "Average CVE 24 h", "setting": "[2]; CALU-1 Run 3, 1 μg/ml CDDP, 24 h", "value": 0.255}, {"measurement": "Average CVE 72 h", "setting": "[2]; CALU-1 Run 3, 1 μg/ml CDDP, 72 h", "value": 0.184}, {"measurement": "Average CVE 24 h", "setting": "[2]; CALU-1 Run 3, 10 μg/ml CDDP, 24 h", "value": 0.558}, {"measurement": "Average CVE 48 h", "setting": "[2]; CALU-1 Run 3, 10 μg/ml CDDP, 48 h", "value": 0.175}, {"measurement": "Average CVE 72 h", "setting": "[2]; CALU-1 Run 3, 10 μg/ml CDDP, 72 h", "value": 0.189}, {"measurement": "Average CVE 24 h", "setting": "[2]; CALU-1 Run 3, 100 μg/ml CDDP, 24 h", "value": 0.375}, {"measurement": "Average CVE 48 h", "setting": "[2]; CALU-1 Run 3, 100 μg/ml CDDP, 48 h", "value": 0.159}, {"measurement": "Average CVE 72 h", "setting": "[2]; CALU-1 Run 3, 100 μg/ml CDDP, 72 h", "value": 0.197}]}
